Key:
[1] = test system: chick chorioallantoic membrane (CAM); assay: Chick CAM angiogenesis induced by soluble RGD collagen peptides; type: in vivo
Experimental: (§1) The chick chorioallantoic membrane (CAM) assays were carried out with some modifications (19). For all experiments CAMs of 10-day-old chick embryos obtained from Charles River (North Franklin, Conn.) were separated from the shell membrane. Filter discs either non-treated (inflammation assays) pretreated (angiogenesis assays) with cortisone acetate (3.0 mg/ml) containing RPMI only or FGF-2 (40 ng). CAMs were either non-treated or treated topically with Mab XL313, XL166 or a non-specific control antibody (10 μg/embryo every 24 h for three consecutive treatments). […] At the end of the incubation period the embryos were sacrificed and the CAM tissues were analyzed. Angiogenesis was quantified by counting the number of angiogenic branching blood vessels within the area of the filter disc. The angiogenic index was determined by subtracting the mean number of blood vessel branch points from untreated CAMs from each experimental condition. Eight to twelve embryos were used per condition and experiments were repeated at least three times.

[2] = test system: YAP; assay: Nuclear YAP in P-2 stimulated endothelial cells with Src or P38MAPK inhibitor; type: cell-based, human; conditions: inhibitor 10 μM; as compared to control; FIG. 8E, 8F
Experimental: (§2) Endothelial cells (HUVECs or HRMVECs) were incubated in serum free media with 1 mM MgCl2, 0.2 mM MnCl2 in the presence of a Src inhibitor, PP2, (10 μM) a P38MAPK inhibitor, SB202190 (10 μM) or vehicle only (DMSO) for 10 min at 37° C. Treated cells were then seeded on to immobilized P-1 and P-2 and lysates were collected at 15 min.
(§3) Whole cell and CAM tissue lysates were collected in RIPA buffer supplemented with 1× protease inhibitor and 1× phosphatase inhibitor and were run on polyacrylamide gels using denaturing conditions. Prior to loading the gels, 6× sample buffer was added to each of the lysates (final concentration 1×) and boiled for five minutes. Twenty to 50 μg of total protein were loaded into each lane. […] Gels were run at 60 volts (v) until the dye front passed through the stacking gel, and then the voltage was increased to 100V for the remainder of the separation. Precision Plus protein standards (Bio-Rad) were used to visualize migration. Protein was transferred to nitrocellulose membranes using a wet tank system and blocked for 1 h using 10% non-fat dried milk in tris-buffered saline with 0.01% Tween-20 (TBS-T). […] Membranes were washed 3 times in TBS-T for five minutes. Blots were then incubated with HRP conjugated secondary antibodies (1:15000) in 1% non-fat milk in TBS-T for 1 h. […] Western blot bands were quantified using Image J software based on pixel intensity.

[3] = test system: P38MAPK; assay: Phosphorylated P38MAPK in HUVECs attached to collagen peptides (Western blot); type: cell-based, human; conditions: Src inhibitor PP2 10 μM; FIG. 7F
Experimental: as §2, §3

[4] = biological target: T1, β3-integrin (Homo sapiens, UniProt P05106+P06756); assay: β3-integrin phosphorylation in endothelial cells attached to collagen peptides (Western blot); type: cell-based; conditions: Src inhibitor PP2 10 μM; FIG. 7E
T1 construct: endogenous in cells; host or cells: HUVEC
Experimental: as §2, §3

[5] = test system: chick chorioallantoic membrane (CAM); assay: Chick CAM inflammation assay, FGF-2 induced, no cortisone acetate; type: in vivo; conditions: FGF-2 induced; vs no treatment or control antibody; FIG. 3E
Experimental: The chick chorioallantoic membrane (CAM) assays were carried out with some modifications (19). For all experiments CAMs of 10-day-old chick embryos obtained from Charles River (North Franklin, Conn.) were separated from the shell membrane. Filter discs either non-treated (inflammation assays) pretreated (angiogenesis assays) with cortisone acetate (3.0 mg/ml) containing RPMI only or FGF-2 (40 ng). CAMs were either non-treated or treated topically with Mab XL313, XL166 or a non-specific control antibody (10 μg/embryo every 24 h for three consecutive treatments). For peptide induction experiments, CAMs were stimulated with 100 ng/ml of the RGD peptides (P-1, P-2, P-C) in the presence or absence of the P38MAPK inhibitor, SB202190 (10 μM). At the end of the incubation period the embryos were sacrificed and the CAM tissues were analyzed. Angiogenesis was quantified by counting the number of angiogenic branching blood vessels within the area of the filter disc. The angiogenic index was determined by subtracting the mean number of blood vessel branch points from untreated CAMs from each experimental condition. Eight to twelve embryos were used per condition and experiments were repeated at least three times.
CAMs examined for accumulation of granulation tissue were harvested, fixed in 4% PFA and paraffin embedded and sectioned (4 μm) and stained with Giemsa. CAM tissues analyzed via immunofluorescence were harvested, embedded with OCT, snap frozen and sectioned ([…]). Frozen sections were fixed in 50% methanol/50% acetone, air dried and blocked with 2.5% BSA for 1 h at 37° C. For expression of the XL313 and XL166 epitopes as well as monocyte/macrophages, FGF-2 stimulated CAM tissues were stained with Mabs XL313, XL166 (50 μg/ml) or KUL1 (1:250) and then incubated with Alexa-488 labeled secondary antibodies (1:2000 dilution). […] Using a similar strategy, sections of RGD peptide-treated CAM tissues were analyzed for phosphorylated-P38MAPK in angiogenic vessels by co-incubation of anti-phospho-P38MAPK (1:50) and anti-vWf (1:500) antibodies. […]

[6] = test system: chick chorioallantoic membrane (CAM); assay: Chick CAM inflammation induced by soluble RGD collagen peptides; type: in vivo; conditions: FIG. 5D
Experimental: as §1

[7] = test system: Fak; assay: Fak phosphorylation in endothelial cells attached to collagen peptides; type: cell-based, human; conditions: serum free conditions
Experimental: Whole cell and CAM tissue lysates were collected in RIPA buffer supplemented with 1× protease inhibitor and 1× phosphatase inhibitor and were run on polyacrylamide gels using denaturing conditions. Prior to loading the gels, 6× sample buffer was added to each of the lysates (final concentration 1×) and boiled for five minutes. Twenty to 50 μg of total protein were loaded into each lane. For detection of proteins larger than 50 kD, 10% gels were used; for proteins smaller than 50 kD 15% gels were used. Gels were run at 60 volts (v) until the dye front passed through the stacking gel, and then the voltage was increased to 100V for the remainder of the separation. Precision Plus protein standards (Bio-Rad) were used to visualize migration. Protein was transferred to nitrocellulose membranes using a wet tank system and blocked for 1 h using 10% non-fat dried milk in tris-buffered saline with 0.01% Tween-20 (TBS-T). […] Western blot bands were quantified using Image J software based on pixel intensity.

[8] = test system: HRMVEC; assay: Endothelial cell proliferation with soluble RGD peptides; type: cell-based, human; conditions: 100 ng/ml, 24 hours; FIG. 8D
Experimental: (§4) HUVECs (WT, shYAP1 or control transfected) or HRMVECs were plated at 2,000 cells per well with complete EGM-2 media containing 2.0% FBS in the absence or presence of P-1, P-2 or P-C (100 ng/ml) and allowed to grow for 24 hours. Cell growth was monitored using a BrdU or MMT assay kits according to manufacturer's instructions. All assays were completed at least three times in triplicate wells.

[9] = test system: HUVEC; assay: as above; type: cell-based, human; conditions: 100 ng/ml, 24 hours; FIG. 8C
Experimental: as §4

[10] = test system: endothelial cells transduced with YAP specific or non-specific shRNAs; assay: Growth of shRNA transduced endothelial cells with soluble RGD peptides; type: cell-based, human; conditions: non-specific shRNA; FIG. 8G
Experimental: as §4
Raw cells were transfected with 1 μg of HuSH shRNA plasmids for collagen type I, alpha 2 using Amaxa cell line nucleofector kit V (program #T024). Constructs expressing 21-nucleotide short hairpin RNAs (shRNA) targeting human YAP (shYAP) or non-targeting control (shNT, Sigma-Aldrich, SHC002) were used. Humantargeting shYAP1 lentiviral shRNA was obtained from the Thermo Scientific RNAi consortium (TRCN0000107625). Constructs were packaged into lentivirus, pseudotyped with the vesicular stomatitis virus glycoprotein. Transduction was performed by incubating cells with lentivirus, and stably transduced cells were subsequently used for studies. All cell lines were verified by morphology and mouse and human YAP-specific PCR. […] Endothelial cells were certified mycoplasma-negative by PCR (Lonza), and primary cell cultures were used within the indicated passage numbers. Cells were transduced and selected using puromycin.

[11] = test system: human umbilical vein endothelial cell (HUVEC); assay: Cell adhesion to immobilized collagen RGD peptides; type: cell-based; conditions: peptide immobilized 100 μg/ml; FIG. 1A
Experimental: RGD peptides (P-1, P-2, P-3, P-4, P-5, and P-C) were immobilized (100 μg/ml) to wells. HUVEC, HMVEC, HRMVEC, and HDF cells were suspended in adhesion buffer (RPMI containing 1 mM MgCl2, 0.2 mM MnCl2 and 0.5% BSA) and 1×10^5 cells were seeded into the wells in the presence or absence of P4C10, LM609, P1F6 or control antibodies (100 μg/ml). Cells were allowed to attach for 25 min at 37° C. Media containing non-attached cells was aspirated and attached cells were washed with PBS and stained with crystal violet. Cell adhesion was quantified by measuring the optical density of eluted dye. Adhesion assays were completed at least three times with triplicate wells.

[12] = biological target: Denatured collagen (collagen type-I boiled 15 minutes) (UniProt P02452); assay: cell-based or functional assay
[13] = biological target: Denatured collagen (collagen type-I boiled 15 minutes) (UniProt P02452); assay: integrin blocking ELISA; denatured collagen wells pre-treated with anti-HU177 (0.1 µg/ml); competitor α2β1 (2.0 µg/ml)
[14] = biological target: Denatured collagen (collagen type-I boiled 15 minutes) (UniProt P02452); assay: integrin blocking ELISA; denatured collagen wells pre-treated with anti-HU177 (0.1 µg/ml); competitor α10β1 (2.0 µg/ml)
[15] = biological target: integrin αvβ3 on cells (HUVEC endothelial cells, M21 melanoma cells, human T-cells) (human, UniProt P06756 31-1048; P05106 27-788); assay: cell-based or functional assay
integrin αvβ3 on cells (HUVEC endothelial cells, M21 melanoma cells, human T-cells), sequence (P06756 31-1048, chain 1 of 2): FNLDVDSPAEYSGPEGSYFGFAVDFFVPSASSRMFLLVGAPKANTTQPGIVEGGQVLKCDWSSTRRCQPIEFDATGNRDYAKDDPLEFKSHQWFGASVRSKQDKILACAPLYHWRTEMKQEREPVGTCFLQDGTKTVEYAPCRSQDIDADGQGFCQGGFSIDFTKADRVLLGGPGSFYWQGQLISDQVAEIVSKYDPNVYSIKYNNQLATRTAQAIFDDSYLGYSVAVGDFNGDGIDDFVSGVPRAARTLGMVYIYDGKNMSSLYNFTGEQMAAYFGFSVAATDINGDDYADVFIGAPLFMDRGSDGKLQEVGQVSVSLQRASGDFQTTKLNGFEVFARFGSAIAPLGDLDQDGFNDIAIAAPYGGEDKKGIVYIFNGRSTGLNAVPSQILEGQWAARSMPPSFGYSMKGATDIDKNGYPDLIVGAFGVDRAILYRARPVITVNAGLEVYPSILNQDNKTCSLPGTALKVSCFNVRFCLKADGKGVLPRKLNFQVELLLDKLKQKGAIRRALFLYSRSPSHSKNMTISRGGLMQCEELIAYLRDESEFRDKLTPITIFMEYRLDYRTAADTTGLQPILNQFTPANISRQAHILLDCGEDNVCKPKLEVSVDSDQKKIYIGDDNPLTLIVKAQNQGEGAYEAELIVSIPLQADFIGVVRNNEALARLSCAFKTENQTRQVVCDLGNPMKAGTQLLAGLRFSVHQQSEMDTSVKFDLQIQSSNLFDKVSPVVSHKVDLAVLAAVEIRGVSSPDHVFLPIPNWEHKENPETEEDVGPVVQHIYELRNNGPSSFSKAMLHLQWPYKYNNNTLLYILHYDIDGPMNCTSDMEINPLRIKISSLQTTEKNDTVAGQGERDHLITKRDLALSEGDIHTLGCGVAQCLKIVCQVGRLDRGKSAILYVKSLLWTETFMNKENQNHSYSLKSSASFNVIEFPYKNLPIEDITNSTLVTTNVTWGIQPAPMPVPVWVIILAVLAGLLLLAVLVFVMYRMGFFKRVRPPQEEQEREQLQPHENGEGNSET
integrin αvβ3 on cells (HUVEC endothelial cells, M21 melanoma cells, human T-cells), sequence (P05106 27-788, chain 2 of 2): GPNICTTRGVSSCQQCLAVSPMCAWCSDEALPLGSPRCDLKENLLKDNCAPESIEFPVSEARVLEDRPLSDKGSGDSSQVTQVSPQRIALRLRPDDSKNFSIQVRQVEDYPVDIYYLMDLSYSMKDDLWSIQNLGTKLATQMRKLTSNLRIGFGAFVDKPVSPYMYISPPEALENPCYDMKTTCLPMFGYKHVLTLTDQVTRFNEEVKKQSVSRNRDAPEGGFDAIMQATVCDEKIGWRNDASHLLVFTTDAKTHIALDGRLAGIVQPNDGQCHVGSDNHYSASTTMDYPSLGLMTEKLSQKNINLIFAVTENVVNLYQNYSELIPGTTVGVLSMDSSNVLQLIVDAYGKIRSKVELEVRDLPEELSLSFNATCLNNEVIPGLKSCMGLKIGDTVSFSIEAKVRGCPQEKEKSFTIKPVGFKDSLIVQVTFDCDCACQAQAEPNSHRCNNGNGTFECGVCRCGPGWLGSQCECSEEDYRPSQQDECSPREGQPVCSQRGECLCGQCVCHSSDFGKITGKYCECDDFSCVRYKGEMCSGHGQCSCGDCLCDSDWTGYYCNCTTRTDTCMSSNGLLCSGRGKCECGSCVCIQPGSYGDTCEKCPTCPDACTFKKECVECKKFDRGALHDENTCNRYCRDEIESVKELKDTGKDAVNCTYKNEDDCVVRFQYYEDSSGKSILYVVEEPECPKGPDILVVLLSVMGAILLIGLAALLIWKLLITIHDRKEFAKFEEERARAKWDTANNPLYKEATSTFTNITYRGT

T1 sequence (P05106 27-788): as the sequence (P05106 27-788, chain 2 of 2) above
T1 sequence (P06756 31-889 limits assumed): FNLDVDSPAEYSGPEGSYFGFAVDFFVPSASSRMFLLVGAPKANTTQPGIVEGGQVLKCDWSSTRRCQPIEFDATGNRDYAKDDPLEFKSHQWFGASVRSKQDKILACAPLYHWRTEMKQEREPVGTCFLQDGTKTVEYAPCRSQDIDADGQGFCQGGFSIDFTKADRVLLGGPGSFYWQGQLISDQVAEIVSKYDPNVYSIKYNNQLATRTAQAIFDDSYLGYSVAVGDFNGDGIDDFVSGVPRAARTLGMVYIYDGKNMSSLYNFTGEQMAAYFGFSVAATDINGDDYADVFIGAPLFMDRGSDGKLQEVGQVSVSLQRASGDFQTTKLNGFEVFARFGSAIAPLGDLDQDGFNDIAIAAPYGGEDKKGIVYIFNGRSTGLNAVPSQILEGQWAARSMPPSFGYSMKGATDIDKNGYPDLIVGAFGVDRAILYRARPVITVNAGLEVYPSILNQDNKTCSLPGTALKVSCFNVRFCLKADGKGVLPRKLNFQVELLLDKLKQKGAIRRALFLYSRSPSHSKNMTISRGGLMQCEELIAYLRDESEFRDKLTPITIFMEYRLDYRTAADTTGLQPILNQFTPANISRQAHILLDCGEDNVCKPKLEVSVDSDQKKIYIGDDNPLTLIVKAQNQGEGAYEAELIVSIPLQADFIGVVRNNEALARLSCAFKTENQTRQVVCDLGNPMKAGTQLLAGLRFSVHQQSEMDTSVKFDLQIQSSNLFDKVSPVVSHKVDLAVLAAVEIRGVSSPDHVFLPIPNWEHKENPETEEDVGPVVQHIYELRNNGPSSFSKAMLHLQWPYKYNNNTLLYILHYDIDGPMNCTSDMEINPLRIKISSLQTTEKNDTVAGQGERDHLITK
T1 sequence (P06756 891-1048 partner limits assumed): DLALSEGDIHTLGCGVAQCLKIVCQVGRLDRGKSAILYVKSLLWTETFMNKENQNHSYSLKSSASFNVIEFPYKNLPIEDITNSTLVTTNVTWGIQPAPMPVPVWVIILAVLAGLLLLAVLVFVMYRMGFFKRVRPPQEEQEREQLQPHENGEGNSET

Oc1ccc(-c2nc(-c3ccncc3)c(-c3ccc(F)cc3)[nH]2)cc1 [P38MAPK inhibitor, SB202190, reference compound]
effect on P-2 induced angiogenesis in vivo ([1]; SB202190 10 μM, FIG. 6F): reduced
reduction of nuclear YAP accumulation following P-2 stimulation [2]: approximately 50%

CC(C)(C)n1nc(-c2ccc(Cl)cc2)c2c(N)ncnc21 [Src inhibitor, PP2, reference compound]
P38MAPK phosphorylation following binding to collagen peptide P-2 [3]: reduced
β3 phosphorylation following binding to collagen peptide P-2 [4]: reduced
reduction of nuclear YAP accumulation following P-2 stimulation [2]: approximately 50%

CC(=O)OCC(=O)[C@@]1(O)CC[C@H]2[C@@H]3CCC4=CC(=O)CC[C@]4(C)[C@H]3C(=O)C[C@@]21C [cortisone acetate]
reduction of the percentage of CAMs exhibiting thickening / inflammation [5]: greater than 80%

CKGDRGDAPGC [Mab P-1, RGDAPG containing collagen type-I peptide (…) with flanking cysteines]
induction of CAM angiogenesis as compared to no treatment ([1]; soluble peptide, FIG. 5C): not
CAM inflammation following stimulation with peptide [6]: Minimal evidence of tissue inflammation
Fak phosphorylation following ligation of peptide [7]: Minimal Fak phosphorylation
HRMVEC growth with soluble peptide [8]: minimal effect
HUVEC growth with soluble peptide [9]: minimal effect
growth of control transduced endothelial cells with soluble peptide [10]: not

CRGPRGDQGPC [Mab P-5]
HUVEC adhesion to immobilized peptide [11]: highest levels of adhesion

Mab HU177 (antibody)
basal migration of SKOV-3 cells and fibroblasts on denatured collagen [12]: 35 to 38%
decrease in SKOV-3 cell adhesion to denatured collagen [12]: 40%
decrease in fibroblast adhesion to denatured collagen [12]: 50%
percent inhibition of α2β1 binding to denatured collagen [13]: 30%
percent inhibition of α10β1 binding to denatured collagen [14]: 60%

CQGPRGDKGEC [Synthetic collagen RGD containing peptide P-2 (CQGPRGDKGEC)]
Src phosphorylation in endothelial cells attached to the peptide (Western blot) [15]: ~2 fold
β3-integrin phosphorylation in endothelial cells attached to the peptide (Western blot) [15]: > 3 fold

— patent publication US10906977B2, “Enhancing the therapeutic activity of immune checkpoint inhibitor” (Maine Medical Center Research Institute, priority 2016, dated 2021)
